Measurements taken from PubChem BioAssay (NCI).
Several values for one entry are separate records, joined by “and”; a condition that tells them apart may be missing. Equal values may be shown once.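 A five-concentration, 48-hour dose response in 96-well plates underlies each endpoint, interpolated linearly between surrounding concentrations. The concentration for 50% growth inhibition is given as GI50. TGI: total growth inhibition.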

Legend:
Test in all cases: NCI tumour cell line growth inhibition, 48 h
A498 renal = test system: A498 renal
A549 NSCLC = test system: A549 NSCLC
HS 578T breast = test system: HS 578T breast
MDA-MB-231 breast = test system: MDA-MB-231 breast
NCI-H226 lung = test system: NCI-H226 lung
OVCAR-5 ovarian = test system: OVCAR-5 ovarian
SN12C renal = test system: SN12C renal
SNB-75 CNS = test system: SNB-75 CNS
SW-620 colon = test system: SW-620 colon
UO-31 renal = test system: UO-31 renal

| Structure (SMILES) | TGI (A498 renal) | TGI (A549 NSCLC) | TGI (HS 578T breast) | TGI (MDA-MB-231 breast) | TGI (NCI-H226 lung) | TGI (OVCAR-5 ovarian) | TGI (SN12C renal) | TGI (SNB-75 CNS) | TGI (SW-620 colon) | TGI (UO-31 renal) | GI50 (A498 renal) | GI50 (A549 NSCLC) | GI50 (HS 578T breast) | GI50 (MDA-MB-231 breast) | GI50 (NCI-H226 lung) | GI50 (OVCAR-5 ovarian) | GI50 (SN12C renal) | GI50 (SNB-75 CNS) | GI50 (SW-620 colon) | GI50 (UO-31 renal) |
| --- | --- | --- | --- | --- | --- | --- | --- | --- | --- | --- | --- | --- | --- | --- | --- | --- | --- | --- | --- | --- |
| Cc1noc(NC(=O)Nc2ccccc2F)c1C#N | > 50.9 µM | > 52.1 µM | > 56.4 µM | > 33.5 µM | > 100 µM | > 45.8 µM | > 48 µM | > 100 µM | > 100 µM | 4.42 µM | – | – | – | – | – | – | – | – | – | – |
| COCCN(Cc1ccc(F)cc1)c1ccc(CO)c(Cl)c1 | 0.193 µM | > 79.5 µM | > 100 µM | > 85.3 µM | 0.353 µM | 2.52 µM | > 100 µM | > 87.4 µM | > 100 µM | > 100 µM | 0.048 µM | 10.4 µM | 60.9 µM | 24.1 µM | 0.152 µM | 0.431 µM | 24.9 µM | 16.6 µM | 7.29 µM | 15.5 µM |
| Nc1nccc(-c2c(-c3ccc(F)cc3)nn3cc(C(F)(F)F)ccc23)n1 | > 25 µM | > 25 µM | > 25 µM | > 25 µM | > 25 µM | > 25 µM | > 25 µM | > 25 µM | > 25 µM | > 25 µM | > 25 µM | > 25 µM | > 25 µM | > 25 µM | > 25 µM | > 25 µM | > 25 µM | > 19.7 µM | > 25 µM | > 25 µM |
| S=C1SCN(Cc2ccccc2)CN1Cc1ccco1 | 69.7 µM | > 100 µM | 81.5 µM | 12.3 µM | – | 21.9 µM | 15.3 µM | 21.9 µM | 18.1 µM | 18.7 µM | 21.6 µM | 23.3 µM | 19.7 µM | 3.17 µM | – | 9.73 µM | 4.06 µM | 4.09 µM | 4.52 µM | 4.56 µM |
| Cc1cc(Br)c(NC(=O)c2c(-c3c(Cl)cccc3Cl)noc2C)c(Br)c1 | > 100 µM | > 100 µM | > 100 µM | > 100 µM | > 100 µM | > 100 µM | > 100 µM | > 100 µM | > 100 µM | > 100 µM | > 100 µM | > 100 µM | 26.5 µM | > 100 µM | 82.5 µM | > 100 µM | > 100 µM | 47.2 µM | > 100 µM | > 100 µM |
| COc1ccccc1CNCCN1C(=O)c2ccc3c4c(ccc(c24)C1=O)C(=O)N(CCNCc1ccccc1OC)C3=O | 2.92 µM | 0.47 µM | 4.88 µM | 0.817 µM | 2.77 µM | 3.34 µM | 0.701 µM | 2.83 µM | 0.591 µM | 2.14 µM | 1.49 µM | 0.204 µM | 1.17 µM | 0.277 µM | 1.26 µM | 0.68 µM | 0.248 µM | 1.4 µM | 0.235 µM | 0.841 µM |
| Cc1ccc(S(=O)(=O)NCCCCC(N)C(=O)O)cc1 (stereo not drawn) | > 100 µM | > 100 µM | > 100 µM | > 100 µM | > 100 µM | > 100 µM | > 100 µM | > 100 µM | > 100 µM | > 100 µM | – | – | – | – | – | – | – | – | – | – |
| O=C(O)CN(CCN(CC(=O)O)CC(=O)O)CC(=O)O.[Mn+2] | > 100 µM | > 100 µM | > 100 µM | > 100 µM | > 100 µM | > 100 µM | > 100 µM | > 100 µM | > 100 µM | > 100 µM | > 100 µM | > 100 µM | > 100 µM | > 100 µM | > 100 µM | > 100 µM | > 100 µM | > 100 µM | > 100 µM | > 100 µM |
| CC(=O)O[C@H]1CC2C(C3CC[C@H](C(C)CCC(=O)O)[C@]31C)[C@H](OC(C)=O)C[C@@H]1CC3(CC[C@]21C)OOC1(CCC(C)CC1)OO3 (stereo partly drawn) | 28.6 µM and 29.8 µM | 13.4 µM and 3.86 µM | 13.8 µM and 4.77 µM | 29.2 µM and 7.65 µM | 22.8 µM and 5.34 µM | 22.7 µM and 16 µM | 18.3 µM and 9.27 µM | 6.81 µM | 22.2 µM and 16 µM | 7.91 µM and 3 µM | – | – | – | 9.81 µM and 2.79 µM | 4.56 µM and 2.11 µM | 10.6 µM and 4.54 µM | – | – | 7.42 µM and 3.55 µM | – |
| C#Cc1ccc(-n2c(/C=C/c3ccc(O)cc3)nc3ncccc3c2=O)cc1 | 6.88 µM | > 100 µM | 30 µM | > 100 µM | 13.1 µM | > 100 µM | > 100 µM | 32.5 µM | > 100 µM | 33.7 µM | 2.48 µM | 4.74 µM | 3.24 µM | 11.4 µM | 2.58 µM | 32.3 µM | 5.16 µM | 0.948 µM | 3.55 µM | 3.79 µM |
| [O]=[V]([OH])([OH])[OH] | > 100 µM | > 100 µM | > 100 µM | > 100 µM | > 100 µM | > 100 µM | > 100 µM | > 100 µM | > 100 µM | > 100 µM | > 100 µM | > 100 µM | > 100 µM | > 100 µM | > 100 µM | > 100 µM | > 100 µM | > 100 µM | > 100 µM | > 100 µM |
| COc1cc(/C=C/c2cc(/C=C/c3ccc(O)c(OC)c3)n(C(=O)c3ccccc3Br)n2)ccc1O | 8.71 µM | 45.3 µM | 48.6 µM | > 100 µM | 56.5 µM | – | > 100 µM | 15.4 µM | > 100 µM | 34.1 µM | 3.04 µM | 3.05 µM | 2.75 µM | 3.59 µM | 3.29 µM | – | 2.22 µM | 2.79 µM | 3.66 µM | 2.36 µM |
| CC(=O)NC1C(O[C@H]2C[C@H]3[C@@H]4CC=C5C[C@@H](O)CC[C@]5(C)[C@H]4CC[C@]3(C)[C@H]2[C@H](C)C(=O)CCC(C)C)OCC(O)C1O (stereo partly drawn) | 2.88 µM | 15.3 µM | 4.09 µM | 12.4 µM | – | 20.1 µM | 26.6 µM | 10.9 µM | 9.78 µM | 3.52 µM | 0.977 µM | 5.45 µM | 0.88 µM | 3.29 µM | – | 6.34 µM | 8.58 µM | 0.909 µM | 3.21 µM | 1.18 µM |
